Laboratory results taken from patent US11186564B2, “Dual NAV1.2/5HT2a inhibitors for treating CNS disorders” (Sunovion Pharmaceuticals Inc., priority 2016, dated 2021).

Target: T1, recombinant human serotonin receptor 5-HT2A (Homo sapiens, UniProt P28223)
T1 construct: expressed in transfected cells; method B: loaded with Ca2+ dye
Assay: 5-HT2A antagonist Ca2+ assay in CHO-K1 cells (method A aequorin luminescence / method B FLIPR fluorescence)
Type: cell-based
Details: antagonist mode vs EC80 of reference agonist, method A or B, read-out: 5HT2A IC50
Summary of the method: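 IC50 was obtained by nonlinear regression of percent inhibition of the EC80 agonist Ca2+ response in CHO-K1 cells stably expressing human 5-HT2A. The readout was aequorin luminescence with agonist injected 15 min after compound (A), or Ca2+-dye fluorescence on FLIPR with serotonin as agonist (B).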

T1 sequence (P28223 whole entry): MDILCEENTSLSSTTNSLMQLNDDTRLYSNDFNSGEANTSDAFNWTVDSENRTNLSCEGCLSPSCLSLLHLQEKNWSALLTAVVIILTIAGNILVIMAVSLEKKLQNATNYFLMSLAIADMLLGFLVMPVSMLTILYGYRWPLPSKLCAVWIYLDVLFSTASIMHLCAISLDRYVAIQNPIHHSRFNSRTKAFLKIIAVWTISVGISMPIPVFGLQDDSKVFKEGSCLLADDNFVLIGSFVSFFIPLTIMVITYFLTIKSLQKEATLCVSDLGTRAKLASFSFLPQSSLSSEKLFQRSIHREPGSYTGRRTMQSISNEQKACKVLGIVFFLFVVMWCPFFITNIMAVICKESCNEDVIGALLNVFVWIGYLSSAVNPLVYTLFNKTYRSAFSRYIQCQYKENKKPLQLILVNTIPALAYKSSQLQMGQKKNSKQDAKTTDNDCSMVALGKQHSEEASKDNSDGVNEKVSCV

| SMILES | IC50 [nM] |
| --- | --- |
| OC(COC1CCCCC1)CN1CCC2(CCCN2c2ccccc2)C1 (centres unmarked) [Example 348, 1-(cyclohexyloxy)-3-(1-phenyl-1,7-diazaspiro[4.4]nonan-7-yl)propan-2-ol] | 7340 |
| c1ccc2c(c1)CCC1(CCN(CCO[C@@H]3CCc4ccccc43)CC1)O2 [Example 431, (R)-1′-(2-((2,3-dihydro-1H-inden-1-yl)oxy)ethyl)spiro[chromane-2,4′-piperidine]] | 710 |
| O[C@H](COC1CCCCC1)CN1CCC[C@@H](Oc2ccc(F)cc2)C1 [Example 266, (S)-1-(cyclohexyloxy)-3-((R)-3-(4-fluorophenoxy)piperidin-1-yl)propan-2-ol] | > 12900 |
| COc1ccccc1OC1CCN(CC2Cc3ccccc3C2)[C@@H](C)C1 (single isomer, unassigned) [Example 148] | 1440 |
| O[C@@H](CO[C@@H]1CCCc2ccccc21)CN1CCN(Cc2ccccc2)CC1 [Example 84, (R)-1-(4-benzylpiperazin-1-yl)-3-(((R)-1,2,3,4-tetrahydronaphthalen-1-yl)oxy)propan-2-ol] | > 16700 |
| O[C@@H](COC1CCCCC1)CN1C[C@@H]2C[C@H](C1)N(c1ccccc1)C2 [Example 332, (R)-1-(cyclohexyloxy)-3-((1S,5R)-6-phenyl-3,6-diazabicyclo[3.2.1]octan-3-yl)propan-2-ol] | > 16700 |
| O=C1CC2(CCN(CC3CCc4ccccc43)CC2)Oc2ccccc21 (centres unmarked) [Example 444, l′-((2,3-dihydro-1H-inden-1-yl)methyl)spiro[chromane-2,4′-piperidin]-4-one] | 1440 |
| OC1(CN2CCC[C@H](Oc3ccc(F)cc3)C2)COCc2ccccc21 (stereo partly drawn) [Example 259, 4-(((S)-3-(4-fluorophenoxy)piperidin-1-yl)methyl)isochroman-4-ol] | > 13300 |
| O=C1c2ccccc2CCN1CCN1CCC(Oc2ccncc2)CC1 [Example 199, 2-(2-(4-(pyridin-4-yloxy)piperidin-1-yl)ethyl)-3,4-dihydroisoquinolin-1(2H)-one] | > 8700 |
| OC1(CN2CCC3(CCc4ccccc4O3)CC2)COCc2ccccc21 (centres unmarked) [Example 413, 4-(spiro[chromane-2,4′-piperidin]-1′-ylmethyl)isochroman-4-ol] | 1100 |
| O[C@@H](COC1CCCCC1)CN1[C@@H]2CC[C@H]1CN(c1nccs1)C2 [Example 291, (R)-1-(cyclohexyloxy)-3-((1R,5S)-3-(thiazol-2-yl)-3,8-diazabicyclo[3.2.1]octan-8-yl)propan-2-ol] | > 10000 |
| COc1ccccc1O[C@H]1CCN(CCN2CCc3ccccc3C2=O)C1 [Example 14, (S)-2-(2-(3-(2-methoxyphenoxy)pyrrolidin-1-yl)ethyl)-3,4-dihydroisoquinolin-1(2H)-one] | 7470 |
| COc1ccc(O[C@@H]2CCN(CCN3CCc4ccccc4C3=O)C2)cc1 [Example 27, (R)-2-(2-(3-(4-methoxyphenoxy)pyrrolidin-1-yl)ethyl)-3,4-dihydroisoquinolin-1(2H)-one] | 2800 |
| Fc1ccc(OC2COCCN(CC3COc4ccccc43)C2)cc1 (centres unmarked) [Example 278, 4-((2,3-dihydrobenzofuran-3-yl)methyl)-6-(4-fluorophenoxy)-1,4-oxazepane] | > 3160 |
| Fc1cccc2c1C(CN1CCC(Oc3ccncc3)CC1)CC2 (centres unmarked) [Example 118, 4-((1-((7-fluoro-2,3-dihydro-1H-inden-1-yl)methyl)piperidin-4-yl)oxy)pyridine] | 1780 |
| c1ccc(N2C[C@@H]3C[C@H]2CCN3CC2Cc3cccnc3C2)cc1 (stereo partly drawn) [Example 320, 6-(((1S,5R)-6-phenyl-2,6-diazabicyclo[3.2.1]octan-2-yl)methyl)-6,7-dihydro-5H-cyclopenta[b]pyridine] | > 10000 |
| O=C1c2ccccc2CCN1CCN1CCC[C@@H](Oc2ccc(F)cc2)C1 [Example 264, (R)-2-(2-(3-(4-fluorophenoxy)piperidin-1-yl)ethyl)-3,4-dihydroisoquinolin-1(2H)-one] | 940 |
